What was measured:
Assay in all cases: KINOMEscan
Format in all cases: binding
Conditions in all cases: read-out: % Ctrl
[1] = target: T1, MAP3K2 (Homo sapiens, UniProt Q9Y2U5)
T1 construct: purchased DiscoveRx KINOMEscan
Procedure, shortened: (§1)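 Competition binding panel of 442 non-mutant kinases: test compound at 5 and 10 μM competed with an active-site-directed ligand for 1 h with shaking. Bound kinase was eluted with 0.5 μM ligand and quantified by qPCR; %Ctrl = (compound − positive control)/(DMSO − positive control) × 100, lower meaning tighter binding.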

[2] = target: T2, SRPK3 (Homo sapiens, UniProt Q9UPE1)
T2 construct: purchased DiscoveRx KINOMEscan
Procedure, shortened: as §1

[3] = target: T3, PRKX (Homo sapiens, UniProt P51817)
T3 construct: purchased DiscoveRx KINOMEscan
T3 sequence (P51817 whole entry): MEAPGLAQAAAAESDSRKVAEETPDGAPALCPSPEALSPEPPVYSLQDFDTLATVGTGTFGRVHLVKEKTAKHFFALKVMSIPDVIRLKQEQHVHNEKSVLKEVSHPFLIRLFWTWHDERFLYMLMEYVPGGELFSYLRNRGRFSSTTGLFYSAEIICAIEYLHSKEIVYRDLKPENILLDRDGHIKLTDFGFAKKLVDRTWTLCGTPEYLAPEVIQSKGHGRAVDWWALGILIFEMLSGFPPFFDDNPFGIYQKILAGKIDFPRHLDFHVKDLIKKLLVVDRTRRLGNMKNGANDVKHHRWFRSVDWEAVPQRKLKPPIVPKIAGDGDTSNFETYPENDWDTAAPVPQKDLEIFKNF
Procedure, shortened: as §1

[4] = target: T4, AURKC (Homo sapiens, UniProt Q9UQB9)
T4 construct: purchased DiscoveRx KINOMEscan
Procedure, shortened: as §1

[5] = target: T5, MINK (Homo sapiens, UniProt Q8N4C8)
T5 construct: purchased DiscoveRx KINOMEscan
T5 sequence (Q8N4C8 whole entry): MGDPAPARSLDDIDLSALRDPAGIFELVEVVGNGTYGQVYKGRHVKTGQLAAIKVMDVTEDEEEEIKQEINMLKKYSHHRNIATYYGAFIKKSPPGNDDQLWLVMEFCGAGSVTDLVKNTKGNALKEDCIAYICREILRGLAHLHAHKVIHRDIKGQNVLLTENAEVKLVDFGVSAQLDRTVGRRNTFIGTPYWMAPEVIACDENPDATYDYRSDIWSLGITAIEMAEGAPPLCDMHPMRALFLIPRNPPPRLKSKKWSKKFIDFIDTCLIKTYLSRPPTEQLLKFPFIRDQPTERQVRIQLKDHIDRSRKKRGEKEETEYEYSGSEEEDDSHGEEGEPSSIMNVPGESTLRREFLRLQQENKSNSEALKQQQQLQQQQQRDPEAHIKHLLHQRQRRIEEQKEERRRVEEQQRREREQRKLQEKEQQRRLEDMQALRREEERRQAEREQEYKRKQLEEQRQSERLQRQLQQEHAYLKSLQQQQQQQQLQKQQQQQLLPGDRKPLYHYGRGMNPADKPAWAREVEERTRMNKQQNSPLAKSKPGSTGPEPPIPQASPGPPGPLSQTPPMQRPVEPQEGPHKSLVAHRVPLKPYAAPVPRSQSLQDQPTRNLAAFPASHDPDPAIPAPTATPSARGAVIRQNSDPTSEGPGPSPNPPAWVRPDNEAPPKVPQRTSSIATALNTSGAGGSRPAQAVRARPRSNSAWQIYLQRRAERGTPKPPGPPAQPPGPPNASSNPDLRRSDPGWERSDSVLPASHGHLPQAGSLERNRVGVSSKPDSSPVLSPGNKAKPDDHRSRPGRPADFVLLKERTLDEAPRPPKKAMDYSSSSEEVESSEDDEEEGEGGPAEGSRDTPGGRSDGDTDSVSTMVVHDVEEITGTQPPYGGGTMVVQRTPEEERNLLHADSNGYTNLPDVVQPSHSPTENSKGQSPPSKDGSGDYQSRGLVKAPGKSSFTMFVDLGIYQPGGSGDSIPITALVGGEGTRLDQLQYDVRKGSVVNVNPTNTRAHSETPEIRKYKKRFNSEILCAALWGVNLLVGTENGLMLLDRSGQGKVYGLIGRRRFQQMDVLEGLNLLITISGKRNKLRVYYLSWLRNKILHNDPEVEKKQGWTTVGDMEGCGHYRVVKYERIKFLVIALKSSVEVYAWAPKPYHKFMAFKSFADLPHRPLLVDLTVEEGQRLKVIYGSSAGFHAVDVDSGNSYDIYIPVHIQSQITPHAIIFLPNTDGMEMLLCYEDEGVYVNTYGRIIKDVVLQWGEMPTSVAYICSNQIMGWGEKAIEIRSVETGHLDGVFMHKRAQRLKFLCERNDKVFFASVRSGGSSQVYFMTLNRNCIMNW
Procedure, shortened: as §1

[6] = target: T6, CDKL3 (Homo sapiens, UniProt Q8IVW4)
T6 construct: purchased DiscoveRx KINOMEscan
T6 sequence (Q8IVW4 whole entry): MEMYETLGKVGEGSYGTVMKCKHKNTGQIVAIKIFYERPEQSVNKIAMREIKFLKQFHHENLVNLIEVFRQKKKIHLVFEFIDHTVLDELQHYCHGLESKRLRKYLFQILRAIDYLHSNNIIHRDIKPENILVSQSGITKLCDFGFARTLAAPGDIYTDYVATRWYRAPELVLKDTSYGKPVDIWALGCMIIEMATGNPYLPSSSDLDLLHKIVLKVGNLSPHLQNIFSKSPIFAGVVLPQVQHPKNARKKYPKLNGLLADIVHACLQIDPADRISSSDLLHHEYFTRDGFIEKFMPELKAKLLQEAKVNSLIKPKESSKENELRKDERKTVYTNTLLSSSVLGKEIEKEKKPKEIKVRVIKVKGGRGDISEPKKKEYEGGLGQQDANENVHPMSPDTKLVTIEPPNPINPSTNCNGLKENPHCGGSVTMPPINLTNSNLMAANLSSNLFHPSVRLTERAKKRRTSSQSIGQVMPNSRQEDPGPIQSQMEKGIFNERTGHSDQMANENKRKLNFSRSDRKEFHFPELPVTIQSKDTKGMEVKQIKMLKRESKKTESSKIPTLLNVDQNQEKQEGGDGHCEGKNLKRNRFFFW
Procedure, shortened: as §1

[7] = target: T7, MST1R (Homo sapiens, UniProt Q04912)
T7 construct: purchased DiscoveRx KINOMEscan
Procedure, shortened: as §1

[8] = target: T8, JNK3 (Homo sapiens, UniProt P53779)
T8 construct: purchased DiscoveRx KINOMEscan
Procedure, shortened: as §1

[9] = target: T9, PRKG2 (Homo sapiens, UniProt Q13237)
T9 construct: purchased DiscoveRx KINOMEscan
Procedure, shortened: as §1

[10] = target: T10, AMPK-alpha1 (Homo sapiens, UniProt Q13131)
T10 construct: purchased DiscoveRx KINOMEscan
T10 sequence (Q13131 whole entry): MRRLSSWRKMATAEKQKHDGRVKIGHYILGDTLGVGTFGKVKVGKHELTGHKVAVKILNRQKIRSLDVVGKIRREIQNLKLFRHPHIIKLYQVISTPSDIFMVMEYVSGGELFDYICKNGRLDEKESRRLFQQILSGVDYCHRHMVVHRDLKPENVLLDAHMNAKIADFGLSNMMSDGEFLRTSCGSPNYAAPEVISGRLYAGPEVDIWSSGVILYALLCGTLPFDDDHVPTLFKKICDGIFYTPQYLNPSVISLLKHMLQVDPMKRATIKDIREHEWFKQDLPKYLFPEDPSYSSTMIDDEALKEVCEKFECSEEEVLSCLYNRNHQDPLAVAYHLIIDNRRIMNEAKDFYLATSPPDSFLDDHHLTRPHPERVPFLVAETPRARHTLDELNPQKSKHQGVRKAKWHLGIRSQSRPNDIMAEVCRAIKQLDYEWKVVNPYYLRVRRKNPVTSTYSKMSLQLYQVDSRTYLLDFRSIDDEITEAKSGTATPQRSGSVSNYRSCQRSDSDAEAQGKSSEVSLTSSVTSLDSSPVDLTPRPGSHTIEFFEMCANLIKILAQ
Procedure, shortened: as §1

[11] = target: T11, TTK (Homo sapiens, UniProt P33981)
T11 construct: purchased DiscoveRx KINOMEscan
T11 sequence (P33981 whole entry): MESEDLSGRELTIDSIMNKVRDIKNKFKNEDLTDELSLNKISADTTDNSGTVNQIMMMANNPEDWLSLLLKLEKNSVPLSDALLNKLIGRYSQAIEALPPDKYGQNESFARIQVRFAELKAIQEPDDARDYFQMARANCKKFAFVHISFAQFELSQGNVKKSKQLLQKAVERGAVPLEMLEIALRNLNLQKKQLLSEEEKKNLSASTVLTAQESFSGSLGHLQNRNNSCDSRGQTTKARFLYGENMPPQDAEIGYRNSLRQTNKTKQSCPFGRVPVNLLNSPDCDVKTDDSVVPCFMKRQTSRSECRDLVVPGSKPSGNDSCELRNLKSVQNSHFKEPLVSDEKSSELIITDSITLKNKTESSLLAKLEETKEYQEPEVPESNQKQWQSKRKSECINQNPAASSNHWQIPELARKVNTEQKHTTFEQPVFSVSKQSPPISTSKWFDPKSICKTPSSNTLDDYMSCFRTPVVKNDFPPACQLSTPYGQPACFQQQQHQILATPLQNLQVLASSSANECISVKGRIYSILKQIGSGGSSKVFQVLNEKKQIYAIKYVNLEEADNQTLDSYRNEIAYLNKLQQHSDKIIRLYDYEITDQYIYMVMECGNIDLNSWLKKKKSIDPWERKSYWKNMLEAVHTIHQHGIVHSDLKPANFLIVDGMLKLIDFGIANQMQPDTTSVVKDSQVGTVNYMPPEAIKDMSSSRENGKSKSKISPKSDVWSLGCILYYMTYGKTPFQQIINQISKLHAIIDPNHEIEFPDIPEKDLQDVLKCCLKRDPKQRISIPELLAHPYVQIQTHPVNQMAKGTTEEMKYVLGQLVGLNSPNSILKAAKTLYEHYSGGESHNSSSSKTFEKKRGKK
Procedure, shortened: as §1

[12] = target: T12, PLK3 (Homo sapiens, UniProt Q9H4B4)
T12 construct: purchased DiscoveRx KINOMEscan
Procedure, shortened: as §1

[13] = target: T13, PDGFRA (Homo sapiens, UniProt P16234)
T13 construct: purchased DiscoveRx KINOMEscan
Procedure, shortened: as §1

[14] = target: T14, STK36 (Homo sapiens, UniProt Q9NRP7)
T14 construct: purchased DiscoveRx KINOMEscan
Procedure, shortened: as §1

[15] = target: T15, MARK4 (Homo sapiens, UniProt Q96L34)
T15 construct: purchased DiscoveRx KINOMEscan
Procedure, shortened: as §1

[16] = target: T16, IRAK1 (Homo sapiens, UniProt P51617)
T16 construct: purchased DiscoveRx KINOMEscan
Procedure, shortened: as §1

[17] = target: T17, MAP3K3 (Homo sapiens, UniProt Q99759)
T17 construct: purchased DiscoveRx KINOMEscan
Procedure, shortened: as §1

[18] = target: T18, JNK1 (Homo sapiens, UniProt P45983)
T18 construct: purchased DiscoveRx KINOMEscan
Procedure, shortened: as §1

[19] = target: T19, EPHA3 (Homo sapiens, UniProt P29320)
T19 construct: purchased DiscoveRx KINOMEscan
Procedure, shortened: as §1

[20] = target: T20, PCTK1 (Homo sapiens, UniProt Q00536)
T20 construct: purchased DiscoveRx KINOMEscan
Procedure, shortened: as §1

[21] = target: T21, AXL (Homo sapiens, UniProt P30530)
T21 construct: purchased DiscoveRx KINOMEscan
Procedure, shortened: as §1

[22] = target: T22, SRPK2 (Homo sapiens, UniProt P78362)
T22 construct: purchased DiscoveRx KINOMEscan
T22 sequence (P78362 whole entry): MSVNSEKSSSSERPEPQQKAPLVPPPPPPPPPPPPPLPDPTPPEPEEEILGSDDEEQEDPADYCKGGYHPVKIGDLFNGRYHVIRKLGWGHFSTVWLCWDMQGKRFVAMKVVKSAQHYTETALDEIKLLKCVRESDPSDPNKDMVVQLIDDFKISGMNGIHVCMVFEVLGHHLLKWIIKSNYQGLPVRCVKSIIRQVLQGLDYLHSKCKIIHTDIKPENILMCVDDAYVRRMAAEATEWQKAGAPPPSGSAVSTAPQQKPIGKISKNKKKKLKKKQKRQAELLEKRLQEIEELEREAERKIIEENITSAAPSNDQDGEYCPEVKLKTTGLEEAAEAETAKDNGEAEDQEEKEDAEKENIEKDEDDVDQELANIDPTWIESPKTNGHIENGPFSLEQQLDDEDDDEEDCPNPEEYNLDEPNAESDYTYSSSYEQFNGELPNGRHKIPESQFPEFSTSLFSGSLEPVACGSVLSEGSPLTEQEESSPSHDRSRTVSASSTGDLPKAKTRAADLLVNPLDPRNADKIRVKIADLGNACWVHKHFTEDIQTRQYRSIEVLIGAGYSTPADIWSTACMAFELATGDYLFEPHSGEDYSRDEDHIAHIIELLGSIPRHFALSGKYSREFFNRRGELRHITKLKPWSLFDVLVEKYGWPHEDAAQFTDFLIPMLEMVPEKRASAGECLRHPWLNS
Procedure, shortened: as §1

[23] = target: T23, MEK2 (Homo sapiens, UniProt P36507)
T23 construct: purchased DiscoveRx KINOMEscan
Procedure, shortened: as §1

[24] = target: T24, MET(Y1235D) (Homo sapiens, UniProt P08581, Y1235D)
T24 construct: purchased DiscoveRx KINOMEscan

[25] = target: T25, PIK3CA(E545K) (Homo sapiens, UniProt P42336, E545K)
T25 construct: purchased DiscoveRx KINOMEscan

[26] = target: T26, JAK3(JH1domain-catalytic) (Homo sapiens, UniProt P52333)
T26 construct: JAK3(JH1domain-catalytic); purchased DiscoveRx KINOMEscan
Procedure, shortened: as §1

[27] = target: T27, ADCK4 (Homo sapiens, UniProt Q96D53)
T27 construct: purchased DiscoveRx KINOMEscan
T27 sequence (Q96D53 whole entry): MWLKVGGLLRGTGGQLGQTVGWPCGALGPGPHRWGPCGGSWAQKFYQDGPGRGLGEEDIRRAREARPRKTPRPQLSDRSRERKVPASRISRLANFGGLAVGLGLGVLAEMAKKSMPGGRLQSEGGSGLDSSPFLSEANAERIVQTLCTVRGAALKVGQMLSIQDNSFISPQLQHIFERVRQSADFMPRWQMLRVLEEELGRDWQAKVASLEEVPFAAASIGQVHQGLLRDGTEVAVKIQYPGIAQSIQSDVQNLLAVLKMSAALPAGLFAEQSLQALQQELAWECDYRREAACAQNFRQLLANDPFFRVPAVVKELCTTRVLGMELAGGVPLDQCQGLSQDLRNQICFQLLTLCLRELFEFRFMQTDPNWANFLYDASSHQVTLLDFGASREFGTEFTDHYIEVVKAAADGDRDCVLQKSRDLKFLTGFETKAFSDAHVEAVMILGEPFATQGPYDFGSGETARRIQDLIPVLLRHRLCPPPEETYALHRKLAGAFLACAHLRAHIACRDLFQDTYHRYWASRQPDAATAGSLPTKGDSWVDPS
Procedure, shortened: as §1

[28] = target: T28, NEK9 (Homo sapiens, UniProt Q8TD19)
T28 construct: purchased DiscoveRx KINOMEscan
Procedure, shortened: as §1

[29] = target: T29, BRK (Homo sapiens, UniProt Q13882)
T29 construct: purchased DiscoveRx KINOMEscan
Procedure, shortened: as §1

[30] = target: T30, EPHB2 (Homo sapiens, UniProt P29323)
T30 construct: purchased DiscoveRx KINOMEscan
Procedure, shortened: as §1

## Cc1ccc(C2=Nc3cccnc3S(=O)(=O)c3ccccc32)cc1 [TBPT, 6-(p-tolyl)benzo[f] pyrido[2,3-b][1,4] thiazepine 11,11-dioxide]
[1]; 5 μM
  remaining binding at 5 µM: 82%
[1]; 10 μM
  remaining binding at 10 µM: 100%
[2]; 5 μM
  remaining binding at 5 µM: 100%
[2]; 10 μM
  remaining binding at 10 µM: 89%
[3]; 5 μM
  remaining binding at 5 µM: 92%
[3]; 10 μM
  remaining binding at 10 µM: 70%
[4]; 5 μM
  remaining binding at 5 µM: 85%
[4]; 10 μM
  remaining binding at 10 µM: 96%
[5]; 5 μM
  remaining binding at 5 µM: 89%
[5]; 10 μM
  remaining binding at 10 µM: 83%
[6]; 5 μM
  remaining binding at 5 µM: 77%
[6]; 10 μM
  remaining binding at 10 µM: 74%
[7]; 5 μM
  remaining binding at 5 µM: 80%
[7]; 10 μM
  remaining binding at 10 µM: 100%
[8]; 5 μM
  remaining binding at 5 µM: 84%
[8]; 10 μM
  remaining binding at 10 µM: 95%
[9]; 5 μM
  remaining binding at 5 µM: 88%
[9]; 10 μM
  remaining binding at 10 µM: 98%
[10]; 5 μM
  remaining binding at 5 µM: 100%
[10]; 10 μM
  remaining binding at 10 µM: 100%
[11]; 5 μM
  remaining binding at 5 µM: 100%
[11]; 10 μM
  remaining binding at 10 µM: 100%
[12]; 5 μM
  remaining binding at 5 µM: 95%
[12]; 10 μM
  remaining binding at 10 µM: 75%
[13]; 5 μM
  remaining binding at 5 µM: 100%
[13]; 10 μM
  remaining binding at 10 µM: 100%
[14]; 5 μM
  remaining binding at 5 µM: 84%
[14]; 10 μM
  remaining binding at 10 µM: 100%
[15]; 5 μM
  remaining binding at 5 µM: 81%
[15]; 10 μM
  remaining binding at 10 µM: 100%
[16]; 5 μM
  remaining binding at 5 µM: 100%
[16]; 10 μM
  remaining binding at 10 µM: 93%
[17]; 5 μM
  remaining binding at 5 µM: 79%
[17]; 10 μM
  remaining binding at 10 µM: 92%
[18]; 5 μM
  remaining binding at 5 µM: 100%
[18]; 10 μM
  remaining binding at 10 µM: 85%
[19]; 5 μM
  remaining binding at 5 µM: 80%
[19]; 10 μM
  remaining binding at 10 µM: 100%
[20]; 5 μM
  remaining binding at 5 µM: 90%
[20]; 10 μM
  remaining binding at 10 µM: 100%
[21]; 5 μM
  remaining binding at 5 µM: 98%
[21]; 10 μM
  remaining binding at 10 µM: 100%
[22]; 5 μM
  remaining binding at 5 µM: 96%
[22]; 10 μM
  remaining binding at 10 µM: 78%
[23]; 5 μM
  remaining binding at 5 µM: 92%
[23]; 10 μM
  remaining binding at 10 µM: 100%
[24]; 5 μM
  remaining binding at 5 µM: 89%
[24]; 10 μM
  remaining binding at 10 µM: 85%
[25]; 5 μM
  remaining binding at 5 µM: 81%
[25]; 10 μM
  remaining binding at 10 µM: 100%
[26]; 5 μM
  remaining binding at 5 µM: 100%
[26]; 10 μM
  remaining binding at 10 µM: 100%
[27]; 5 μM
  remaining binding at 5 µM: 83%
[27]; 10 μM
  remaining binding at 10 µM: 94%
[28]; 5 μM
  remaining binding at 5 µM: 100%
[28]; 10 μM
  remaining binding at 10 µM: 88%
[29]; 5 μM
  remaining binding at 5 µM: 100%
[29]; 10 μM
  remaining binding at 10 µM: 98%
[30]; 5 μM
  remaining binding at 5 µM: 91%
[30]; 10 μM
  remaining binding at 10 µM: 100%

Reference: PMC4823954, “From fighting depression to conquering tumors: a novel tricyclic thiazepine compound as a tubulin polymerization inhibitor” (Cell Death & Disease, 2016)
